{"source": "patent US20150176022A1", "about": "“HERBICIDE-RESISTANT SUNFLOWER PLANTS, POLYNUCLEOTIDES ENCODING HERBICIDE=RESISTANT ACETO HYDROXY ACID SYNTHASE LARGE SUBUNIT PROTEINS, AND METHODS OF USE” (priority 2013, published 2015)", "assay_in_all_cases": "Greenhouse whole-plant imazapir dose response (Example 8)", "assay_type_in_all_cases": "in vivo, Helianthus annuus", "key": {"[1]": {"system": "sunflower IR79 (Restorer Line, A205V)", "details": "14 DAT", "experimental": "(§1) A greenhouse study was conducted to quantify and contrast the imazapir sensitivity of the mutants A122T and A205V in different genetic backgrounds at the whole plant level in sunflower. Seeds of the different sunflower lines that were used in this study were obtained under field conditions.\n(§2) Seeds were sown in Petri dishes and, after germination, plantlets were transplanted to pots of 10 cm of diameter in a potting media consisting of equal parts of vermiculite, soil and sand. Plants were grown in a greenhouse under natural light conditions supplemented with 400 W sodium halide lamps to provide a 16 hrs daylength. Day/night temperatures were 25 and 20° C., respectively. At the V2 stage 10 plants of each genotype were randomly assigned to each treatment consisting of […] imazapir doses (0, 40, 80, 160, 240, 320, 400 and 480 g ai/ha), and a zero-time biomass determination. Experiment was arranged as a randomized block design with a full factorial (sunflower line×treatment) arrangement of treatments and 10 replications.\n(§3) On the day of herbicide application ten plants of each genotype were cut at the cotyledonal node and dried at 60° C. for 48 hrs zero-time for dried weight determination. […] Height was determined as the distance between the cotyledonal node and the apex of each plant. For root biomass determination, each plant was taken from the pot and the potting media was washed out from the roots. Above ground biomass data from each line were converted to biomass accumulation after application by subtracting the appropriate average zero-time biomass from each sample. Dry biomass data were converted to percentages of the untreated control plants within each line to allow direct comparisons between groups."}, "[2]": {"system": "sunflower GM40 (Manteiner Line, A122T)", "details": "14 DAT", "experimental": "as §1, §2, §3"}, "[3]": {"system": "sunflower GIM 5-7 (Manteiner Line, A205V)", "details": "GIM5-7, 14 DAT", "experimental": "as §1, §2, §3"}, "[4]": {"system": "sunflower GM1606 (Manteiner Line, A122T)", "details": "0.5× (40 g ai/ha), 14 DAT", "experimental": "as §1, §2, §3"}}, "data": [{"smiles": "CC(C)C1(C)N=C(c2ncccc2C(=O)O)NC1=O", "note": "(stereo not shown) [imazapir, imazapyr]", "values": [{"measurement": "biomass accumulation (dry biomass, % of untreated)", "setting": "[1]; 0.5× (40 g ai/ha)", "value": 94.4, "unit": "%"}, {"measurement": "plant height (% of untreated)", "setting": "[1]; 0.5× (40 g ai/ha)", "value": 92.8, "unit": "%"}, {"measurement": "root dry weight (% of untreated)", "setting": "[1]; 0.5× (40 g ai/ha)", "value": 98.6, "unit": "%"}, {"measurement": "biomass accumulation (dry biomass, % of untreated)", "setting": "[1]; 1× (80 g ai/ha)", "value": 74.0, "unit": "%"}, {"measurement": "plant height (% of untreated)", "setting": "[1]; 1× (80 g ai/ha)", "value": 80.9, "unit": "%"}, {"measurement": "root dry weight (% of untreated)", "setting": "[1]; 1× (80 g ai/ha)", "value": 53.4, "unit": "%"}, {"measurement": "biomass accumulation (dry biomass, % of untreated)", "setting": "[1]; 2× (160 g ai/ha)", "value": 67.7, "unit": "%"}, {"measurement": "plant height (% of untreated)", "setting": "[1]; 2× (160 g ai/ha)", "value": 74.9, "unit": "%"}, {"measurement": "root dry weight (% of untreated)", "setting": "[1]; 2× (160 g ai/ha)", "value": 42.5, "unit": "%"}, {"measurement": "biomass accumulation (dry biomass, % of untreated)", "setting": "[1]; 3× (240 g ai/ha)", "value": 49.1, "unit": "%"}, {"measurement": "plant height (% of untreated)", "setting": "[1]; 3× (240 g ai/ha)", "value": 55.7, "unit": "%"}, {"measurement": "root dry weight (% of untreated)", "setting": "[1]; 3× (240 g ai/ha)", "value": 38.4, "unit": "%"}, {"measurement": "biomass accumulation (dry biomass, % of untreated)", "setting": "[1]; 4× (320 g ai/ha)", "value": 44.5, "unit": "%"}, {"measurement": "plant height (% of untreated)", "setting": "[1]; 4× (320 g ai/ha)", "value": 52.8, "unit": "%"}, {"measurement": "root dry weight (% of untreated)", "setting": "[1]; 4× (320 g ai/ha)", "value": 31.5, "unit": "%"}, {"measurement": "biomass accumulation (dry biomass, % of untreated)", "setting": "[1]; 5× (400 g ai/ha)", "value": 40.1, "unit": "%"}, {"measurement": "plant height (% of untreated)", "setting": "[1]; 5× (400 g ai/ha)", "value": 41.7, "unit": "%"}, {"measurement": "root dry weight (% of untreated)", "setting": "[1]; 5× (400 g ai/ha)", "value": 23.3, "unit": "%"}, {"measurement": "biomass accumulation (dry biomass, % of untreated)", "setting": "[1]; 6× (480 g ai/ha)", "value": 35.3, "unit": "%"}, {"measurement": "plant height (% of untreated)", "setting": "[1]; 6× (480 g ai/ha)", "value": 33.2, "unit": "%"}, {"measurement": "root dry weight (% of untreated)", "setting": "[1]; 6× (480 g ai/ha)", "value": 21.9, "unit": "%"}, {"measurement": "biomass accumulation (dry biomass, % of untreated)", "setting": "[2]; 0.5× (40 g ai/ha)", "value": 96.5, "unit": "%"}, {"measurement": "plant height (% of untreated)", "setting": "[2]; 0.5× (40 g ai/ha)", "value": 99.6, "unit": "%"}, {"measurement": "root dry weight (% of untreated)", "setting": "[2]; 0.5× (40 g ai/ha)", "value": 100, "unit": "%"}, {"measurement": "biomass accumulation (dry biomass, % of untreated)", "setting": "[2]; 1× (80 g ai/ha)", "value": 94.1, "unit": "%"}, {"measurement": "plant height (% of untreated)", "setting": "[2]; 1× (80 g ai/ha)", "value": 97.4, "unit": "%"}, {"measurement": "root dry weight (% of untreated)", "setting": "[2]; 1× (80 g ai/ha)", "value": 100, "unit": "%"}, {"measurement": "biomass accumulation (dry biomass, % of untreated)", "setting": "[2]; 2× (160 g ai/ha)", "value": 97.6, "unit": "%"}, {"measurement": "plant height (% of untreated)", "setting": "[2]; 2× (160 g ai/ha)", "value": 95.2, "unit": "%"}, {"measurement": "root dry weight (% of untreated)", "setting": "[2]; 2× (160 g ai/ha)", "value": 100, "unit": "%"}, {"measurement": "biomass accumulation (dry biomass, % of untreated)", "setting": "[2]; 3× (240 g ai/ha)", "value": 95.8, "unit": "%"}, {"measurement": "plant height (% of untreated)", "setting": "[2]; 3× (240 g ai/ha)", "value": 93.0, "unit": "%"}, {"measurement": "root dry weight (% of untreated)", "setting": "[2]; 3× (240 g ai/ha)", "value": 92.2, "unit": "%"}, {"measurement": "biomass accumulation (dry biomass, % of untreated)", "setting": "[2]; 4× (320 g ai/ha)", "value": 88.3, "unit": "%"}, {"measurement": "plant height (% of untreated)", "setting": "[2]; 4× (320 g ai/ha)", "value": 93.0, "unit": "%"}, {"measurement": "root dry weight (% of untreated)", "setting": "[2]; 4× (320 g ai/ha)", "value": 96.1, "unit": "%"}, {"measurement": "biomass accumulation (dry biomass, % of untreated)", "setting": "[2]; 5× (400 g ai/ha)", "value": 85.6, "unit": "%"}, {"measurement": "plant height (% of untreated)", "setting": "[2]; 5× (400 g ai/ha)", "value": 93.9, "unit": "%"}, {"measurement": "root dry weight (% of untreated)", "setting": "[2]; 5× (400 g ai/ha)", "value": 84.2, "unit": "%"}, {"measurement": "biomass accumulation (dry biomass, % of untreated)", "setting": "[2]; 6× (480 g ai/ha)", "value": 76.8, "unit": "%"}, {"measurement": "plant height (% of untreated)", "setting": "[2]; 6× (480 g ai/ha)", "value": 84.3, "unit": "%"}, {"measurement": "root dry weight (% of untreated)", "setting": "[2]; 6× (480 g ai/ha)", "value": 74.3, "unit": "%"}, {"measurement": "biomass accumulation (dry biomass, % of untreated)", "setting": "[3]; 0.5× (40 g ai/ha)", "value": 92.9, "unit": "%"}, {"measurement": "plant height (% of untreated)", "setting": "[3]; 0.5× (40 g ai/ha)", "value": 79.1, "unit": "%"}, {"measurement": "root dry weight (% of untreated)", "setting": "[3]; 0.5× (40 g ai/ha)", "value": 79.2, "unit": "%"}, {"measurement": "biomass accumulation (dry biomass, % of untreated)", "setting": "[3]; 1× (80 g ai/ha)", "value": 75.1, "unit": "%"}, {"measurement": "plant height (% of untreated)", "setting": "[3]; 1× (80 g ai/ha)", "value": 76.7, "unit": "%"}, {"measurement": "root dry weight (% of untreated)", "setting": "[3]; 1× (80 g ai/ha)", "value": 56.3, "unit": "%"}, {"measurement": "biomass accumulation (dry biomass, % of untreated)", "setting": "[3]; 2× (160 g ai/ha)", "value": 55.1, "unit": "%"}, {"measurement": "plant height (% of untreated)", "setting": "[3]; 2× (160 g ai/ha)", "value": 57.7, "unit": "%"}, {"measurement": "root dry weight (% of untreated)", "setting": "[3]; 2× (160 g ai/ha)", "value": 40.6, "unit": "%"}, {"measurement": "biomass accumulation (dry biomass, % of untreated)", "setting": "[3]; 3× (240 g ai/ha)", "value": 45.6, "unit": "%"}, {"measurement": "plant height (% of untreated)", "setting": "[3]; 3× (240 g ai/ha)", "value": 55.3, "unit": "%"}, {"measurement": "root dry weight (% of untreated)", "setting": "[3]; 3× (240 g ai/ha)", "value": 40.2, "unit": "%"}, {"measurement": "biomass accumulation (dry biomass, % of untreated)", "setting": "[3]; 4× (320 g ai/ha)", "value": 31.8, "unit": "%"}, {"measurement": "plant height (% of untreated)", "setting": "[3]; 4× (320 g ai/ha)", "value": 27.3, "unit": "%"}, {"measurement": "root dry weight (% of untreated)", "setting": "[3]; 4× (320 g ai/ha)", "value": 34.0, "unit": "%"}, {"measurement": "biomass accumulation (dry biomass, % of untreated)", "setting": "[3]; 5× (400 g ai/ha)", "value": 34.2, "unit": "%"}, {"measurement": "plant height (% of untreated)", "setting": "[3]; 5× (400 g ai/ha)", "value": 37.2, "unit": "%"}, {"measurement": "root dry weight (% of untreated)", "setting": "[3]; 5× (400 g ai/ha)", "value": 48.5, "unit": "%"}, {"measurement": "biomass accumulation (dry biomass, % of untreated)", "setting": "[3]; 6× (480 g ai/ha)", "value": 36.8, "unit": "%"}, {"measurement": "plant height (% of untreated)", "setting": "[3]; 6× (480 g ai/ha)", "value": 30.0, "unit": "%"}, {"measurement": "root dry weight (% of untreated)", "setting": "[3]; 6× (480 g ai/ha)", "value": 43.1, "unit": "%"}, {"measurement": "biomass accumulation (dry biomass, % of untreated)", "setting": "[4]", "value": 100.0, "unit": "%"}]}]}
